Data: the supplement of paper PMC10307832

Tests used:
Assay in all cases: relative viability (nuclei count vs DMSO), 5 days (fraction); higher = more cells survive
Tivantinib + Alpelisib = compound: O=C1NC(=O)[C@@H](c2cn3c4c(cccc24)CCC3)[C@@H]1c1c[nH]c2ccccc12 [Tivantinib] + Cc1nc(NC(=O)N2CCC[C@H]2C(N)=O)sc1-c1ccnc(C(C)(C)C(F)(F)F)c1 [Alpelisib] (partner 2 µM)
Method in brief: (§1)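 Medians of duplicate plates are given as relative viability. That measure is the nuclei count in treated wells divided by the count in vehicle wells. Counts were taken on 4× images of lung cancer cell lines in 1536-well plates, 5 days after pin-tool dosing the day after seeding with one drug alone or a fixed anchor-drug dose plus five library-drug doses (not always all listed) in √10 steps.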

Tivantinib + Tozasertib = compound: O=C1NC(=O)[C@@H](c2cn3c4c(cccc24)CCC3)[C@@H]1c1c[nH]c2ccccc12 [Tivantinib] + Cc1cc(Nc2cc(N3CCN(C)CC3)nc(Sc3ccc(NC(=O)C4CC4)cc3)n2)n[nH]1 [Tozasertib] (partner 0.1 µM)
Method in brief: as §1

Crenolanib + Lapatinib = compound: CC1(COc2ccc3c(c2)ncn3-c2ccc3cccc(N4CCC(N)CC4)c3n2)COC1 [Crenolanib] + CS(=O)(=O)CCNCc1ccc(-c2ccc3ncnc(Nc4ccc(OCc5cccc(F)c5)c(Cl)c4)c3c2)o1 [Lapatinib] (partner 2 µM)
Method in brief: as §1

Tivantinib + Olaparib = compound: O=C1NC(=O)[C@@H](c2cn3c4c(cccc24)CCC3)[C@@H]1c1c[nH]c2ccccc12 [Tivantinib] + O=C(c1cc(Cc2n[nH]c(=O)c3ccccc23)ccc1F)N1CCN(C(=O)C2CC2)CC1 [Olaparib] (partner 8 µM)
Method in brief: as §1

| Cell Line | relative viability (Tivantinib + Alpelisib; first compound 0.01 µM) | relative viability (Tivantinib + Alpelisib; first compound 0.03162 µM) | relative viability (Tivantinib + Alpelisib; first compound 0.1 µM) | relative viability (Tivantinib + Alpelisib; first compound 0.3162 µM) | relative viability (Tivantinib + Tozasertib; first compound 0.01 µM) | relative viability (Tivantinib + Tozasertib; first compound 0.03162 µM) | relative viability (Tivantinib + Tozasertib; first compound 0.1 µM) | relative viability (Tivantinib + Tozasertib; first compound 0.3162 µM) | relative viability (Crenolanib + Lapatinib; first compound 0.01 µM) | relative viability (Crenolanib + Lapatinib; first compound 0.03162 µM) | relative viability (Crenolanib + Lapatinib; first compound 0.1 µM) | relative viability (Crenolanib + Lapatinib; first compound 0.3162 µM) | relative viability (Crenolanib + Lapatinib; first compound 1 µM) | relative viability (Tivantinib + Olaparib; first compound 0.01 µM) | relative viability (Tivantinib + Olaparib; first compound 0.03162 µM) | relative viability (Tivantinib + Olaparib; first compound 0.1 µM) | relative viability (Tivantinib + Olaparib; first compound 0.3162 µM) |
| --- | --- | --- | --- | --- | --- | --- | --- | --- | --- | --- | --- | --- | --- | --- | --- | --- | --- |
| 201T | 0.982 | 1 | 0.999 | 0.981 | 0.985 | 0.897 | 0.919 | 0.88 | 1 | 1.02 | 1.03 | 0.965 | 1.01 | 0.837 | 0.794 | 0.817 | 0.831 |
| A549 | 0.769 | 0.818 | 0.708 | 0.79 |  |  |  |  | 1.12 | 1.1 | 0.948 | 1.23 | 1.1 | 0.204 | 0.253 | 0.301 | 0.214 |
| A-427 | 1.12 | 1.12 | 1.1 | 0.973 | 0.21 | 0.2 | 0.198 | 0.169 | 0.996 | 0.998 | 1.04 | 1.06 | 1.06 | 0.761 | 0.794 | 0.723 | 0.685 |
| ABC-1 | 0.984 | 0.995 | 0.742 | 0.825 | 0.209 | 0.155 | 0.215 | 0.223 | 1.23 | 1.02 | 1.28 | 1.1 | 1.23 | 0.875 | 1.17 | 0.626 | 0.955 |
| BEN | 1.02 | 0.837 | 0.893 | 0.735 | 0.529 | 0.549 | 0.574 | 0.537 | 0.808 | 0.552 | 0.746 | 0.685 | 0.68 | 1.05 | 1.01 | 0.961 | 0.857 |
| CAL-12T | 1.19 | 1.32 | 1.09 | 0.8 | 0.416 | 0.337 | 0.259 | 0.293 | 0.73 | 0.618 | 0.661 | 0.703 | 0.821 | 0.731 | 0.643 | 0.677 | 0.613 |
| COR-L23 | 0.864 | 0.754 | 0.671 | 0.905 | 0.185 | 0.188 | 0.184 | 0.234 | 0.952 | 1.13 | 0.836 | 0.931 | 0.987 | 0.339 | 0.417 | 0.328 | 0.326 |
| COR-L 105 | 1 | 0.921 | 0.783 | 0.95 | 0.32 | 0.414 | 0.397 | 0.383 | 0.353 | 0.403 | 0.345 | 0.37 | 0.335 | 0.739 | 0.665 | 0.729 | 0.585 |
| Calu-6 | 0.987 | 1.03 | 1.02 | 0.955 |  |  |  |  | 0.996 | 1.02 | 1.05 | 1.27 | 1.06 | 0.611 | 0.572 |  | 0.564 |
| ChaGo-K-1 |  |  |  |  | 0.205 | 0.219 | 0.218 | 0.218 |  |  |  |  |  | 0.401 | 0.41 | 0.409 | 0.398 |
| EBC-1 | 0.948 | 0.865 | 0.841 | 0.719 |  |  |  |  | 0.212 | 0.213 | 0.22 | 0.202 | 0.215 | 0.708 | 0.681 | 0.781 | 0.711 |
| EKVX | 0.912 | 0.785 | 0.888 | 0.239 | 0.388 | 0.346 | 0.421 |  | 0.2 | 0.241 | 0.186 | 0.222 | 0.239 | 0.812 | 0.893 | 0.834 | 0.296 |
| EMC-BAC-2 | 0.792 | 0.718 | 0.705 | 0.656 | 0.276 | 0.271 | 0.136 | 0.261 | 0.912 | 0.862 | 0.882 | 0.931 | 0.81 | 0.45 | 0.477 | 0.485 | 0.582 |
| EPLC-272H | 0.975 | 0.922 | 0.836 | 0.672 | 0.206 | 0.268 | 0.283 | 0.152 |  | 0.877 | 0.722 | 0.977 | 1.02 | 0.97 | 0.698 | 0.657 | 0.257 |
| H3255 | 0.659 | 0.679 | 0.75 |  | 0.62 | 0.594 | 0.535 |  | 0.271 | 0.218 | 0.241 | 0.233 | 0.24 | 0.599 | 0.588 | 0.57 |  |
| HARA | 0.962 | 0.737 | 0.827 | 0.431 | 0.122 | 0.12 | 0.104 | 0.0992 | 0.711 | 0.81 | 0.645 | 0.602 | 0.684 | 1.02 | 0.49 | 0.735 | 0.732 |
| HCC-15 | 0.942 | 0.832 | 0.799 | 0.996 | 0.463 | 0.442 | 0.409 | 0.335 | 0.829 | 0.895 | 0.807 | 0.83 | 0.793 | 0.725 | 0.756 | 0.643 | 0.917 |
| HCC-44 | 0.844 | 0.703 | 0.858 | 0.793 | 0.968 | 0.712 | 0.887 | 0.275 | 1.02 | 0.997 | 0.901 | 0.999 | 0.905 | 0.961 | 0.963 | 1.01 | 0.941 |
| HCC-78 | 0.412 | 0.306 | 0.34 | 0.204 | 0.443 | 0.437 | 0.405 | 0.277 | 0.138 | 0.637 | 0.705 | 0.71 | 0.467 | 0.99 | 0.767 | 0.709 | 0.62 |
| HCC-366 | 0.432 | 0.35 | 0.421 | 0.419 | 0.103 | 0.114 | 0.115 | 0.0949 | 0.954 | 1.09 | 0.916 | 1.31 | 0.915 | 0.278 | 0.35 | 0.308 | 0.346 |
